Columns and labels:
MES-SA/DX5 = test: CellTiter-Glo cell viability, MES-SA/DX5; assay type: cell-based
Protocol: (§1) The 50% inhibitory concentration (IC50) was determined in the cancer cell lines using CellTiter-Glo luminescent cell viability assay after incubation with different concentrations of active agents. Each cell line was treated with active Zn(II) agent, a standard chemotherapy drug as reference control, and culture medium as vehicle control. Cell Lines. All cell lines were cultured in media supplemented with 10-15% FBS, at a temperature of 37° C., 5% CO2, and 95% humidity. The reference control drug for all cell lines was cisplatin, to be used for genomic analysis. The cell lines tested, the tissue of origin are shown below in Table 1: Procedure for Determining Half Maximal Inhibition Concentration IC50 • 1. Harvested cells during the logarithmic growth period and count cell number using Count-star. • 2. Adjusted cell concentrations to 4.44×10^4 cells/mL with respective culture medium. • 3. Added 90 μL cell suspensions to two 96-well plates (plates A and B) with the final cell density of 4×10^3 cells/well. (cell concentration was adjusted according to the data base or density optimization assay.) • 4a. Next day: For the plates of TO reading: • 1) Added 10 μL culture medium to each well of plate A for TO reading. • 2) Equilibrated the plate and its content at RT for approximately 30 min. • 3) Added 50 μL CellTiter-Glo reagent to each well. • 4) Mixed content for 5 min on an orbital shaker to induce cell lysis. • 5) Allowed the plate to incubate at RT for 20 min to stabilize luminescent signal. • 6) Recorded luminescence (TO) using EnVision Multi Label Reader. • 4b. For the plates of test reading: • 1) Prepared 10× solution of Zn(II) agent test article. […] The formula for calculating surviving rate is shown below and the absolute IC50 (EC50) was calculated according to the dose-response curve generated by GraphPad Prism 5.0. • 12) The surviving rate (%)=(LumTest article−LumMedium control)/(LumNon-treated−LumMedium control)×100%.

Molt-4 = test: CellTiter-Glo cell viability, Molt-4; assay type: cell-based
Protocol: as §1

Hep G2 = test: CellTiter-Glo cell viability, Hep G2; assay type: cell-based
Protocol: as §1

AsPC-1 = test: CellTiter-Glo cell viability, AsPC-1; assay type: cell-based
Protocol: as §1

CA46 = test: CellTiter-Glo cell viability, CA46; assay type: cell-based
Protocol: as §1

MOLM-13 = test: CellTiter-Glo cell viability, MOLM-13; assay type: cell-based
Protocol: as §1

OCI-AML2 = test: CellTiter-Glo cell viability, OCI-AML2; assay type: cell-based
Protocol: as §1

Calu-3 = test: CellTiter-Glo cell viability, Calu-3; assay type: cell-based
Protocol: as §1

50 cancer cell lines = test: Genetic instability mutation analysis of 50 cell line IC50 distribution
Excerpt: Following the 50 cell line screening tests (OmniScreen™) described in Example 6, each cell line was catalogued (yes or no) for the presence of mutations in the following genes by consulting the OncoExpress™ database (Crown Biosciences Inc., Santa Clara, data accession date 18 May 2018˜30 May 2018). • MLH1 (part of the deficient mismatch repair—dMMR-mutations group) • MSH2 (part of the deficient mismatch repair—dMMR-mutations group) • PMS2 (part of the deficient mismatch repair—dMMR-mutations group) • PARP1 • BRCA1 (part of the BRCA1/BRCA2 mutations group) • BRCA2 (part of the BRCA1/BRCA2 mutations group) • TP53
The integrated data were then analyzed using Excel® software (Microsoft, Seattle). Briefly, the sorting algorithm of the Excel® software was used in grouping of the cell lines carrying certain mutations, and in further analysis of the IC50 distribution in each group.
The IC50 distributions among the cell line groups sharing certain genetic mutations were then analyzed for statistical significance.
Statistical analysis was performed using JMP 13 (SAS Institute Inc. Cary, N.C., USA) or Origin 9 (Origin Lab Corp., Northampton, Mass., USA). All data are represented as mean±standard error of the mean (SEM) and were tested for statistical significance using Mann-Whitney U test or analysis of variance (ANOVA). P-values of <0.05 were interpreted as statistically significant.

NCI-H446 = test: CellTiter-Glo cell viability, NCI-H446; assay type: cell-based
Protocol: as §1

THP-1 = test: CellTiter-Glo cell viability, THP-1; assay type: cell-based
Protocol: as §1

Raji = test: CellTiter-Glo cell viability, Raji; assay type: cell-based
Protocol: as §1

OVCAR-3 = test: CellTiter-Glo cell viability, OVCAR-3; assay type: cell-based
Protocol: as §1

Kasumi-1 = test: CellTiter-Glo cell viability, Kasumi-1; assay type: cell-based
Protocol: as §1

HCT-116 = test: CellTiter-Glo cell viability, HCT-116; assay type: cell-based
Protocol: as §1

KARPAS-422 = test: CellTiter-Glo cell viability, KARPAS-422; assay type: cell-based
Protocol: as §1

MOLP8 = test: CellTiter-Glo cell viability, MOLP8; assay type: cell-based
Protocol: as §1

MV-4-11 = test: CellTiter-Glo cell viability, MV-4-11; assay type: cell-based
Protocol: as §1

U-937 = test: CellTiter-Glo cell viability, U-937; assay type: cell-based
Protocol: as §1

HCC1954 = test: CellTiter-Glo cell viability, HCC1954; assay type: cell-based
Protocol: as §1

SK-HEP-1 = test: CellTiter-Glo cell viability, SK-HEP-1; assay type: cell-based
Protocol: as §1

PANC-1 = test: CellTiter-Glo cell viability, PANC-1; assay type: cell-based
Protocol: as §1

DU 145 = test: CellTiter-Glo cell viability, DU 145; assay type: cell-based
Protocol: as §1

SK-OV-3 = test: CellTiter-Glo cell viability, SK-OV-3; assay type: cell-based
Protocol: The 50% inhibitory concentration (IC50) was determined in the cancer cell lines using CellTiter-Glo luminescent cell viability assay after incubation with different concentrations of active agents. Each cell line was treated with active Zn(II) agent, a standard chemotherapy drug as reference control, and culture medium as vehicle control. Cell Lines. All cell lines were cultured in media supplemented with 10-15% FBS, at a temperature of 37° C., 5% CO2, and 95% humidity. The reference control drug for all cell lines was cisplatin, to be used for genomic analysis. The cell lines tested, the tissue of origin are shown below in Table 1: Procedure for Determining Half Maximal Inhibition Concentration IC50 • 1. Harvested cells during the logarithmic growth period and count cell number using Count-star. • 2. Adjusted cell concentrations to 4.44×10^4 cells/mL with respective culture medium. • 3. Added 90 μL cell suspensions to two 96-well plates (plates A and B) with the final cell density of 4×10^3 cells/well. (cell concentration was adjusted according to the data base or density optimization assay.) • 4a. […]

HL-60 = test: CellTiter-Glo cell viability, HL-60; assay type: cell-based
Protocol: as §1

PC-3 = test: CellTiter-Glo cell viability, PC-3; assay type: cell-based
Protocol: as §1

[1] = 96 h, top conc. 50 μg/mL Zn(II) agent, 100 μM cisplatin

N.N.[Cl][Pt][Cl] [Cisplatin]
Absolute IC50 (MES-SA/DX5; 96 h, CellTiter-Glo): 0.56 µg/mL | % inhibition at top conc. (MES-SA/DX5; [1]): 99.97% | HillSlope (MES-SA/DX5; 96 h dose-response fit): −1.75 | Absolute IC50 (Molt-4; 96 h, CellTiter-Glo): 0.10 µg/mL | % inhibition at top conc. (Molt-4; [1]): 99.99% | HillSlope (Molt-4; 96 h dose-response fit): −2.01 | Absolute IC50 (Hep G2; 96 h, CellTiter-Glo): 0.55 µg/mL | % inhibition at top conc. (Hep G2; [1]): 98.96% | HillSlope (Hep G2; 96 h dose-response fit): −0.90 | Absolute IC50 (AsPC-1; 96 h, CellTiter-Glo): 0.67 µg/mL | % inhibition at top conc. (AsPC-1; [1]): 81.58% | HillSlope (AsPC-1; 96 h dose-response fit): −1.47 | Absolute IC50 (CA46; 96 h, CellTiter-Glo): 0.21 µg/mL | % inhibition at top conc. (CA46; [1]): 99.92% | HillSlope (CA46; 96 h dose-response fit): −1.96 | Absolute IC50 (MOLM-13; 96 h, CellTiter-Glo): 0.16 µg/mL | % inhibition at top conc. (MOLM-13; [1]): 99.98% | HillSlope (MOLM-13; 96 h dose-response fit): −2.08 | Absolute IC50 (OCI-AML2; 96 h, CellTiter-Glo): 0.33 µg/mL | % inhibition at top conc. (OCI-AML2; [1]): 99.96% | HillSlope (OCI-AML2; 96 h dose-response fit): −2.66 | Absolute IC50 (Calu-3; 96 h, CellTiter-Glo): 0.30 µg/mL | % inhibition at top conc. (Calu-3; [1]): 82.29% | HillSlope (Calu-3; 96 h dose-response fit): −1.15 | effect of CREBBPmt-KRASmt-BRCA1WT combination on sensitivity (50 cancer cell lines): strong resistance | Absolute IC50 (NCI-H446; 96 h, CellTiter-Glo): 0.35 µg/mL | % inhibition at top conc. (NCI-H446; [1]): 99.99% | HillSlope (NCI-H446; 96 h dose-response fit): −0.65 | Absolute IC50 (THP-1; 96 h, CellTiter-Glo): 0.39 µg/mL | % inhibition at top conc. (THP-1; [1]): 99.98% | HillSlope (THP-1; 96 h dose-response fit): −3.03 | Absolute IC50 (Raji; 96 h, CellTiter-Glo): 0.50 µg/mL | % inhibition at top conc. (Raji; [1]): 99.57% | HillSlope (Raji; 96 h dose-response fit): −2.98 | Absolute IC50 (OVCAR-3; 96 h, CellTiter-Glo): 1.08 µg/mL | % inhibition at top conc. (OVCAR-3; [1]): 97.70% | HillSlope (OVCAR-3; 96 h dose-response fit): −2.96 | Absolute IC50 (Kasumi-1; 96 h, CellTiter-Glo): 0.71 µg/mL | % inhibition at top conc. (Kasumi-1; [1]): 99.98% | HillSlope (Kasumi-1; 96 h dose-response fit): −1.18 | Absolute IC50 (HCT-116; 96 h, CellTiter-Glo): 2.89 µg/mL | % inhibition at top conc. (HCT-116; [1]): 91.19% | HillSlope (HCT-116; 96 h dose-response fit): −2.03 | Absolute IC50 (KARPAS-422; 96 h, CellTiter-Glo): 0.37 µg/mL | % inhibition at top conc. (KARPAS-422; [1]): 99.99% | HillSlope (KARPAS-422; 96 h dose-response fit): −1.04 | Absolute IC50 (MOLP8; 96 h, CellTiter-Glo): 0.16 µg/mL | % inhibition at top conc. (MOLP8; [1]): 99.98% | HillSlope (MOLP8; 96 h dose-response fit): −2.16 | Absolute IC50 (MV-4-11; 96 h, CellTiter-Glo): 0.09 µg/mL | % inhibition at top conc. (MV-4-11; [1]): 99.99% | HillSlope (MV-4-11; 96 h dose-response fit): −2.06 | Absolute IC50 (U-937; 96 h, CellTiter-Glo): 0.37 µg/mL | % inhibition at top conc. (U-937; [1]): 99.99% | HillSlope (U-937; 96 h dose-response fit): −4.57 | Absolute IC50 (HCC1954; 96 h, CellTiter-Glo): 1.59 µg/mL | % inhibition at top conc. (HCC1954; [1]): 99.87% | HillSlope (HCC1954; 96 h dose-response fit): −1.98 | Absolute IC50 (SK-HEP-1; 96 h, CellTiter-Glo): 2.13 µg/mL | % inhibition at top conc. (SK-HEP-1; [1]): 99.93% | HillSlope (SK-HEP-1; 96 h dose-response fit): −1.28 | Absolute IC50 (PANC-1; 96 h, CellTiter-Glo): 1.08 µg/mL | % inhibition at top conc. (PANC-1; [1]): 96.35% | HillSlope (PANC-1; 96 h dose-response fit): −0.62 | Absolute IC50 (DU 145; 96 h, CellTiter-Glo): 0.20 µg/mL | % inhibition at top conc. (DU 145; [1]): 99.24% | HillSlope (DU 145; 96 h dose-response fit): −2.37 | % inhibition at top conc. (SK-OV-3; [1]): 98.22% | HillSlope (SK-OV-3; 96 h dose-response fit): −1.68 | Absolute IC50 (HL-60; 96 h, CellTiter-Glo): 0.29 µg/mL | % inhibition at top conc. (HL-60; [1]): 99.99% | HillSlope (HL-60; 96 h dose-response fit): −2.08 | Absolute IC50 (PC-3; 96 h, CellTiter-Glo): 1.13 µg/mL | % inhibition at top conc. (PC-3; [1]): 93.27% | HillSlope (PC-3; 96 h dose-response fit): −1.55

From patent US20210128609A1, “ONCOLOGY TREATMENTS USING ZINC AGENTS” (XYLONIX IP HOLDINGS PTE. LTD., priority 2018, published 2021)
